From ChEMBL document CHEMBL4483862, “Open-source discovery of chemical leads for next-generation chemoprotective antimalarials” (2018)

Tested on: Plasmodium berghei
Experiment: Luciferase/luciferin-expressing antifolate-resistant parasites were used to infect a culture of HepG2 cells that were pre-incubated with compounds. Infected hepatocytes emit light due to the luciferase reaction. Assay results are presented as the percent inhibition of light emission compared to control. […]
Assay type: functional
Settings: sporozoite; for IC90: read-out: LUCIFERASE INFECTION ASSAY - IC90
[1] = read-out: LUCIFERASE INFECTION ASSAY - IC50

Structure (SMILES)	IC90 [µM]	IC50 [1] [µM]	other results
O=C(COc1ccc2[nH]c3ccccc3c(=O)c2c1)N1c2ccccc2OCC1c1ccccc1 (stereo not drawn)	0.0412		IC50 (FFLUC_HILL_SLOPE 10.4, FFLUC_R_SQUARED 0.204, PBLUC_HILL_SLOPE 2.2, PBLUC_R_SQUARED 0.922, read-out: LUCIFERASE INFECTION ASSAY - IC50): 0.0152 µM
O=C(CSc1ccc(S(=O)(=O)N2CCOCC2)cn1)NC(c1ccccc1)c1cccs1 (stereo not drawn)	> 10	> 10	
N#C/C(=N\Nc1cc(C(F)(F)F)cc(C(F)(F)F)c1)C(=O)c1ccco1	8.44		IC50 (FFLUC_HILL_SLOPE 13.1, FFLUC_R_SQUARED 0.556, HEPG2TOX_HILL_SLOPE 1.19, HEPG2TOX_R_SQUARED 0.748, PBLUC_HILL_SLOPE 4.82, PBLUC_R_SQUARED 0.319, read-out: LUCIFERASE INFECTION ASSAY - IC50): 5.35 µM
COc1cc(-c2nccc3n[nH]c(-c4cccc(OC(F)(F)F)c4)c23)cc(OC)c1OC	> 10	> 10	
CN1N=C2c3ccccc3CCC2C1c1ccc(F)cc1 (stereo not drawn)	5.64		IC50 (PBLUC_HILL_SLOPE 1.42, PBLUC_R_SQUARED 0.884, read-out: LUCIFERASE INFECTION ASSAY - IC50): 1.2 µM
COc1ccc(-c2cnn3c(N)c(-c4cccc(Cl)c4)cnc23)cc1OC	> 8.67		IC50 (HEPG2TOX_HILL_SLOPE 8.92, HEPG2TOX_R_SQUARED 0.943, PBLUC_HILL_SLOPE 1.73, PBLUC_R_SQUARED 0.738, read-out: LUCIFERASE INFECTION ASSAY - IC50): 2.75 µM
COc1ccc(OCCCC(=O)N(Cc2ccccc2)c2nc3c(C)cccc3s2)cc1	> 10	> 10	
COc1ccc2c(c1)CC/C(=C\c1ccc(C(C)C)cc1)C2=O	> 10.8	> 10.8	
Nc1ccc(SC(F)(F)F)cc1	> 10	> 10	
Fc1ccc(-c2csc3ncnc(NC4CCN(Cc5ccccc5)C4)c23)cc1 (stereo not drawn)	> 10		IC50 (PBLUC_HILL_SLOPE 12.7, PBLUC_R_SQUARED 0.103, read-out: LUCIFERASE INFECTION ASSAY - IC50): 9.17 µM
Cc1cc(/C=C(\C#N)C(=O)OCC(=O)c2c(N)n(CC(C)C)c(=O)n(C)c2=O)c(C)n1CC(C)C	> 10		IC50 (PBLUC_HILL_SLOPE 2.67, PBLUC_R_SQUARED 0.243, read-out: LUCIFERASE INFECTION ASSAY - IC50): 7.76 µM
CC(=O)Nc1cccc(Nc2nccc3[nH]c(-c4cccc(C(F)(F)F)c4)cc23)c1	2.28	0.705	
CNC(=O)c1ccc(CN(CCOc2cccc(F)c2)C2CC2)cc1	> 10		IC50 (PBLUC_HILL_SLOPE 4.75, PBLUC_R_SQUARED 0.3, read-out: LUCIFERASE INFECTION ASSAY - IC50): 6.72 µM
CC(C)(C)c1ccc2nc(/C(=C\c3ccc(F)cc3)NC(=O)c3ccccc3)[nH]c2c1	> 7.98		IC50 (PBLUC_HILL_SLOPE 14.3, PBLUC_R_SQUARED 0.247, read-out: LUCIFERASE INFECTION ASSAY - IC50): 6.92 µM
CN(C)CCNC(=O)c1ccc(-c2cn3c(-c4cccc(OC(F)(F)F)c4)cnc3cn2)cc1	> 7.03		IC50 (PBLUC_HILL_SLOPE 3.61, PBLUC_R_SQUARED 0.27, read-out: LUCIFERASE INFECTION ASSAY - IC50): 5.86 µM
C#CCOc1ccccc1/C=C(\C#N)c1nc(N)nc(Nc2ccccc2)n1	> 10		IC50 (FFLUC_HILL_SLOPE 15.9, FFLUC_R_SQUARED 0.0727, HEPG2TOX_HILL_SLOPE 1.54, HEPG2TOX_R_SQUARED 0.555, PBLUC_HILL_SLOPE 1.18, PBLUC_R_SQUARED 0.297, read-out: LUCIFERASE INFECTION ASSAY - IC50): > 10 µM
C=CCN(c1ccccc1OC)S(=O)(=O)c1ccc(Cl)c(C(=O)Nc2nc3ccccc3[nH]2)c1	> 10		IC50 (HEPG2TOX_HILL_SLOPE 2.58, HEPG2TOX_R_SQUARED 0.695, PBLUC_HILL_SLOPE 1.17, PBLUC_R_SQUARED 0.361, read-out: LUCIFERASE INFECTION ASSAY - IC50): 2.23 µM
C=CCn1c(O)nnc1Sc1ncc([N+](=O)[O-])s1	> 11.6	> 11.6	
CCOC(=O)c1[nH]c(C)c(C(=O)OCC(=O)Nc2ccc(S(=O)(=O)NC3=NCCCCC3)cc2)c1C	> 10	> 10	
Fc1cccc(-c2nc3ccnc(NCc4ccccc4)c3[nH]2)c1	4.56		IC50 (HEPG2TOX_HILL_SLOPE 6.86, HEPG2TOX_R_SQUARED 0.629, PBLUC_HILL_SLOPE 1.32, PBLUC_R_SQUARED 0.696, read-out: LUCIFERASE INFECTION ASSAY - IC50): 0.868 µM
OCc1ccc(-c2cnc3cnc(/C=C/c4ccccc4)cn23)cc1	0.659		IC50 (HEPG2TOX_HILL_SLOPE 0.99, HEPG2TOX_R_SQUARED 0.698, PBLUC_HILL_SLOPE 2.37, PBLUC_R_SQUARED 0.796, read-out: LUCIFERASE INFECTION ASSAY - IC50): 0.261 µM
CC(Oc1ccc(Cl)cc1Cl)C(=O)Nc1nc(-c2c[nH]c(C(N)=O)c2)cs1 (stereo not drawn)	2.99		IC50 (PBLUC_HILL_SLOPE 4.28, PBLUC_R_SQUARED 0.703, read-out: LUCIFERASE INFECTION ASSAY - IC50): 1.79 µM

Structure (SMILES)	IC90 [µM]	IC50 [1] [µM]	other results
c1nc(Nc2ccc(C34CC5CC(CC(C5)C3)C4)cc2)c2ccsc2n1	0.884		IC50 (PBLUC_HILL_SLOPE 24.2, PBLUC_R_SQUARED 0.39, read-out: LUCIFERASE INFECTION ASSAY - IC50): 0.808 µM
CC(C)(C)OC(=O)NCc1ccc(C(=O)NNC(=O)c2ccccc2O)cc1	> 10	> 10	
Cc1cccc(N(C)c2ccnc3c(-c4ccc(C(=O)NC5CC5)cc4)cnn23)c1	6.33		IC50 (PBLUC_HILL_SLOPE 3.89, PBLUC_R_SQUARED 0.384, read-out: LUCIFERASE INFECTION ASSAY - IC50): 3.6 µM
COc1cccc(CC(=O)Nc2ccc(N3CCNC(=O)C3)c(Cl)c2)c1	> 10	> 10	
COc1ccccc1N1CCN(c2nc(=O)c3c([nH]2)CCC3)CC1	1.26		IC50 (FFLUC_HILL_SLOPE 1.43, FFLUC_R_SQUARED 0.67, PBLUC_HILL_SLOPE 2.78, PBLUC_R_SQUARED 0.645, read-out: LUCIFERASE INFECTION ASSAY - IC50): 0.572 µM
COc1ccc(OC)c(/C=c2\s/c(=C(/C#N)c3nnc4n3CCCCC4)n(-c3ccccc3)c2=O)c1	> 10		IC50 (PBLUC_HILL_SLOPE 2.48, PBLUC_R_SQUARED 0.654, read-out: LUCIFERASE INFECTION ASSAY - IC50): 4.74 µM
NC(/C=C/c1cc(C(F)(F)F)cc(C(F)(F)F)c1)=N\O	> 11.1	> 11.1	
COc1cccc(-c2csc(-c3nnc4n3-c3ccccc3SC4)n2)c1	3.9	2.69	
O=C1C=CC(=O)N1c1ccccc1Oc1ccc(Cl)cc1Cl	> 9.88		IC50 (PBLUC_HILL_SLOPE 0.641, PBLUC_R_SQUARED 0.0559, read-out: LUCIFERASE INFECTION ASSAY - IC50): > 9.88 µM
CCn1c(-c2cc(C(=O)c3ccccc3O)c[nH]2)nc2ccccc21	> 10		IC50 (HEPG2TOX_HILL_SLOPE 7.78, HEPG2TOX_R_SQUARED 0.356, PBLUC_HILL_SLOPE 1.9, PBLUC_R_SQUARED 0.373, read-out: LUCIFERASE INFECTION ASSAY - IC50): 6.07 µM
O=C(N/N=C/c1ccc(N2CCCCC2)s1)c1ccccc1O	5.71		IC50 (PBLUC_HILL_SLOPE 8.76, 2.86, PBLUC_R_SQUARED 0.104, 0.555, read-out: LUCIFERASE INFECTION ASSAY - IC50): 3.37 µM
Cc1cc(-c2nc3c(c(=O)[nH]c(=O)n3Cc3ccccc3)n2CC2CCCO2)cc(C)c1O (stereo not drawn)	> 10	> 10	
CSc1c(C#N)c(-c2ccc(Cl)cc2)nn1C(=O)c1ccccc1Cl	> 8.5	> 8.5	
Cc1cc(-n2c(C)cc(/C=C3\S/C(=N\C4CCCC4)NC3=O)c2C)no1	> 10		IC50 (PBLUC_HILL_SLOPE 2.3, PBLUC_R_SQUARED 0.376, read-out: LUCIFERASE INFECTION ASSAY - IC50): 5.21 µM
O=[N+]([O-])c1ccc(NN=C(Cc2ccccc2)Cc2ccccc2)c(S(=O)(=O)Nc2ccccc2Cl)c1	> 10		IC50 (HEPG2TOX_HILL_SLOPE 2.02, HEPG2TOX_R_SQUARED 0.983, PBLUC_HILL_SLOPE 2.86, PBLUC_R_SQUARED 0.742, read-out: LUCIFERASE INFECTION ASSAY - IC50): 6.11 µM
CC(C)Cc1ccc(C(C)NC(=O)c2ccc(CN3CCCC3)cc2)cc1 (stereo not drawn)	> 10		IC50 (PBLUC_HILL_SLOPE 0.907, PBLUC_R_SQUARED 0.512, read-out: LUCIFERASE INFECTION ASSAY - IC50): 2.16 µM
O=C(COC(=O)Cc1ccc(Cl)c(Cl)c1)Nc1ccc(OCc2ccccc2)cc1	> 10	> 10	
COCCNC(=O)C1(C)CCCN(C(=O)c2ccc(OC)cc2OC)C1 (stereo not drawn)	> 9.06	> 9.06	
Oc1cccc(-c2nccc3n[nH]c(-c4cccc(F)c4)c23)c1	> 10		IC50 (PBLUC_HILL_SLOPE 3.75, PBLUC_R_SQUARED 0.113, read-out: LUCIFERASE INFECTION ASSAY - IC50): 6.03 µM
CC(C)(C)c1ccc(CSc2nnc(-c3ccc(C(C)(C)C)cc3)n2Cc2ccco2)cc1	> 7.18		IC50 (PBLUC_HILL_SLOPE 3.03, PBLUC_R_SQUARED 0.36, read-out: LUCIFERASE INFECTION ASSAY - IC50): 5.09 µM
COc1ccc(-c2cnc3ccc(NCC4CC4)nn23)cc1OC	2.25		IC50 (HEPG2TOX_HILL_SLOPE 1.71, HEPG2TOX_R_SQUARED 0.949, PBLUC_HILL_SLOPE 2.62, PBLUC_R_SQUARED 0.845, read-out: LUCIFERASE INFECTION ASSAY - IC50): 0.972 µM
O=C(N/N=C1\CCCCc2ccccc21)c1cc2ccccc2cc1O	> 10		IC50 (HEPG2TOX_HILL_SLOPE 7.95, HEPG2TOX_R_SQUARED 0.651, read-out: LUCIFERASE INFECTION ASSAY - IC50): > 10 µM
